Source: patent US4755513A, “Antimicrobial 1-substituted phenyl-4-oxoquinoline-3-carboxylic acid compounds” (Otsuka Pharmaceutical Company, Limited, priority 1985, dated 1988)

Experiments:
Test in all cases: MIC by serial dilution method on agar plate
Type in all cases: cell-based
[1] = system: Staphylococcus pyrogens IID S-23; settings: 1 × 10^8 cells/ml
Source text: (§1) The microorganisms were used in a concentration of 1×10^8 cells/ml (O.D. 660 mμ, 0.07-0.16) and 1×10^6 cells/ml (100 folds dilution).

[2] = system: Staphylococcus aureus FDA 209P
Source text: as §1

[3] = system: Bacillus subtilis ATCC 6633
Source text: (§2) Chemotherapy, 22, 1126-1128 (1974)]. The microorganisms were used in a concentration of 1×10^8 cells/ml (O.D. 660 mμ, 0.07-0.16) and 1×10^6 cells/ml (100 folds dilution).

[4] = system: Escherichia coli NIHJ JC-2
Source text: as §2

[5] = system: Klebsiella pneumoniae NCTC 9632
Source text: as §2

[6] = system: Acinetobacter calcoaceticus AC-54
Source text: as §2

[7] = system: Proteus morganii IID Kono
Source text: as §2

Escherichia coli No. 29 = system: Escherichia coli No. 29
Source text: as §2

[8] = system: Streptococcus faecalis IFO 12580
Source text: as §2

[9] = system: Pseudomonas aeruginosa ATCC 10145
Source text: as §2

[10] = system: Serratia marcescens IFO 12648
Source text: as §2

[11] = system: Proteus inconstans IFO 12930
Source text: as §2

[12] = system: Pseudomonas aeruginosa E-2
Source text: as §2

Q: Which results are given for “6,8-Difluoro-1-(4-fluorophenyl)-7-(1-piperazinyl)-1,4-dihydro-4-oxoquinoline-3-carboxylic acid [Test Compd. No. 2]”?
A: minimum inhibitory concentration (MIC) [1]: 6.25; minimum inhibitory concentration (MIC) ([2]; 1 × 10^6 cells/ml): 0.195; minimum inhibitory concentration (MIC) ([2]; 1 × 10^8 cells/ml): 0.195; minimum inhibitory concentration (MIC) ([3]; 1 × 10^6 cells/ml): 0.097; minimum inhibitory concentration (MIC) ([3]; 1 × 10^8 cells/ml): 0.195; minimum inhibitory concentration (MIC) ([4]; 1 × 10^6 cells/ml): < 0.048; minimum inhibitory concentration (MIC) ([4]; 1 × 10^8 cells/ml): < 0.048; minimum inhibitory concentration (MIC) ([5]; 1 × 10^6 cells/ml): 0.097; minimum inhibitory concentration (MIC) ([5]; 1 × 10^8 cells/ml): 0.195; minimum inhibitory concentration (MIC) ([6]; 1 × 10^6 cells/ml): 0.781; minimum inhibitory concentration (MIC) ([6]; 1 × 10^8 cells/ml): 1.56; minimum inhibitory concentration (MIC) ([7]; 1 × 10^6 cells/ml): 0.781; minimum inhibitory concentration (MIC) ([7]; 1 × 10^8 cells/ml): 1.56; minimum inhibitory concentration (MIC) (Escherichia coli No. 29; 1 × 10^6 cells/ml): < 0.048; minimum inhibitory concentration (MIC) (Escherichia coli No. 29; 1 × 10^8 cells/ml): < 0.048; minimum inhibitory concentration (MIC) ([8]; 1 × 10^6 cells/ml): 0.781; minimum inhibitory concentration (MIC) ([8]; 1 × 10^8 cells/ml): 1.56; minimum inhibitory concentration (MIC) ([9]; 1 × 10^6 cells/ml): 1.56; minimum inhibitory concentration (MIC) ([9]; 1 × 10^8 cells/ml): 1.56; minimum inhibitory concentration (MIC) ([10]; 1 × 10^6 cells/ml): 0.39; minimum inhibitory concentration (MIC) ([10]; 1 × 10^8 cells/ml): 0.781; minimum inhibitory concentration (MIC) ([11]; 1 × 10^6 cells/ml): 1.56; minimum inhibitory concentration (MIC) ([11]; 1 × 10^8 cells/ml): 3.12; minimum inhibitory concentration (MIC) ([12]; 1 × 10^6 cells/ml): 1.56; minimum inhibitory concentration (MIC) ([12]; 1 × 10^8 cells/ml): 1.56

Q: Which “minimum inhibitory concentration (MIC)” value ([2]; 1 × 10^6 cells/ml) does the source give for “6,8-Difluoro-1-(4-hydroxy-2-fluorophenyl)-7-(1-piperazinyl)-1,4-dihydro-4-oxoquinoline-3-carboxylic acid [Example 5]” here?
A: The value was 0.097.

Q: What about the “minimum inhibitory concentration (MIC)” value ([2]; 1 × 10^8 cells/ml) of the same substance?
A: Its value is 0.097.

Q: What about the “minimum inhibitory concentration (MIC)” value ([3]; 1 × 10^6 cells/ml) of the same substance?
A: Its value is 0.195.

Q: And the “minimum inhibitory concentration (MIC)” value ([3]; 1 × 10^8 cells/ml)?
A: The value was 0.39.

Q: What about the “minimum inhibitory concentration (MIC)” value ([4]; 1 × 10^6 cells/ml) of the same substance?
A: The value was under 0.048.

Q: What about the “minimum inhibitory concentration (MIC)” value ([4]; 1 × 10^8 cells/ml) of the same substance?
A: Its value is 0.097.

Q: And the “minimum inhibitory concentration (MIC)” value ([5]; 1 × 10^6 cells/ml)?
A: The value was 0.097.

Q: And the “minimum inhibitory concentration (MIC)” value ([5]; 1 × 10^8 cells/ml)?
A: The value was 0.097.

Q: What about the “minimum inhibitory concentration (MIC)” value ([6]; 1 × 10^6 cells/ml) of the same substance?
A: The value was 0.39.

Q: What about the “minimum inhibitory concentration (MIC)” value ([6]; 1 × 10^8 cells/ml) of the same substance?
A: The value was 0.781.

Q: And the “minimum inhibitory concentration (MIC)” value ([7]; 1 × 10^6 cells/ml)?
A: Its value is 0.781.

Q: And the “minimum inhibitory concentration (MIC)” value ([7]; 1 × 10^8 cells/ml)?
A: The value was 1.56.

Q: And the “minimum inhibitory concentration (MIC)” value (Escherichia coli No. 29; 1 × 10^6 cells/ml)?
A: The value was under 0.048.

Q: What about the “minimum inhibitory concentration (MIC)” value (Escherichia coli No. 29; 1 × 10^8 cells/ml) of the same substance?
A: The value was 0.097.

Q: What about the “minimum inhibitory concentration (MIC)” value ([8]; 1 × 10^6 cells/ml) of the same substance?
A: Its value is 0.781.

Q: What about the “minimum inhibitory concentration (MIC)” value ([8]; 1 × 10^8 cells/ml) of the same substance?
A: Its value is 1.56.

Q: And the “minimum inhibitory concentration (MIC)” value ([9]; 1 × 10^6 cells/ml)?
A: Its value is 1.56.

Q: What about the “minimum inhibitory concentration (MIC)” value ([9]; 1 × 10^8 cells/ml) of the same substance?
A: The value was 3.12.

Q: And the “minimum inhibitory concentration (MIC)” value ([10]; 1 × 10^6 cells/ml)?
A: The value was 0.781.

Q: What about the “minimum inhibitory concentration (MIC)” value ([10]; 1 × 10^8 cells/ml) of the same substance?
A: The value was 0.781.

Q: What about the “minimum inhibitory concentration (MIC)” value ([11]; 1 × 10^6 cells/ml) of the same substance?
A: Its value is 1.56.

Q: What about the “minimum inhibitory concentration (MIC)” value ([11]; 1 × 10^8 cells/ml) of the same substance?
A: Its value is 3.12.

Q: What about the “minimum inhibitory concentration (MIC)” value ([12]; 1 × 10^6 cells/ml) of the same substance?
A: Its value is 1.56.

Q: And the “minimum inhibitory concentration (MIC)” value ([12]; 1 × 10^8 cells/ml)?
A: Its value is 1.56.
